Here are results for nine compounds from PMC7887271, “Fast acting allosteric phosphofructokinase inhibitors block trypanosome glycolysis and cure acute African trypanosomiasis in mice” (Nature Communications, 2021).

Values joined by “and” are separate entries in the source; they are usually repeats but may differ in a detail not shown here. Equal entries are not always repeated. Where two headings read alike, the source gives them in different places.

Test [1] has as its system bloodstream form of T. brucei strain Lister 427. The experiment in a line: T. b. brucei 427 growth inhibition assay (LILiT, Alamar Blue). In kind it is cell-based. The note with it: Trypanosoma brucei. As to the method:
The ‘in vitro’ parasite killing assay used the BSF of the non-human pathogenic subspecies T. b. brucei, strain Lister 427, cultured in HMI-9 medium containing 10% foetal bovine serum. A second cell line, T. b. brucei GVR35-Luc2 which constitutively expresses firefly luciferase was grown in Modified HMI-9 plus 20% foetal calf serum supplemented with 20% Serum Plus (Sigma) and 0.15 μg mL^−1 puromycin. Both strains of trypanosomes were cultured in T-25 vented cap flasks at 37 °C and 5% CO2.
The ‘in vitro’ parasite killing assay used the bloodstream-form of the non-human pathogenic subspecies T. b. brucei, strain Lister 427 (a gift from Professor Keith Matthews) which was cultured in HMI-9 medium containing 10% fetal bovine serum (FBS). A second cell line, T. b. brucei GVR35-Luc2 which constitutively expresses firefly luciferase (5) was grown in Modified HMI-9 plus 20% fetal calf serum (FCS) supplemented with 20% Serum Plus (Sigma) and 0.15 μg/ml puromycin as described previously (5). Both strains of trypanosomes were cultured in T-25 vented cap flasks at 37 °C and 5% CO2.
Growth inhibition tests of bloodstream-form T. b. brucei Lister 427 were carried out using the LILiT (long incubation low inoculation test) method (6). The parasites were cultured in complete HMI-9 medium containing 10% FBS in 96-well plates (Greiner Inc.) with approximately 2500 trypanosomes per well. A 3-fold dilution series (in the range from 45 µM – 0.020 µM) of the inhibitor compounds were prepared in the plate; the maximal concentration of DMSO was 0.45%. After 72 hours of incubation at 37 °C and 5% CO2, 50 µl Alamar Blue (0.2% diluted with Dulbecco’s-phosphate buffered saline (D-PBS, Sigma) was added to each well and plates were incubated at 37 °C and 5% CO2 for 4 hours. Fluorescence was read on the BMG multiplate reader using an excitation wavelength of 530 nm and an emission wavelength of 590 nm.

The target of test [2] is T1, T. brucei phosphofructokinase (TbPFK) (Trypanosoma brucei brucei, UniProt O15648).
T1 construct: made in house; host or cells: Escherichia coli C41 (pET28a, codon optimised gene)
T1 sequence (O15648 1-487): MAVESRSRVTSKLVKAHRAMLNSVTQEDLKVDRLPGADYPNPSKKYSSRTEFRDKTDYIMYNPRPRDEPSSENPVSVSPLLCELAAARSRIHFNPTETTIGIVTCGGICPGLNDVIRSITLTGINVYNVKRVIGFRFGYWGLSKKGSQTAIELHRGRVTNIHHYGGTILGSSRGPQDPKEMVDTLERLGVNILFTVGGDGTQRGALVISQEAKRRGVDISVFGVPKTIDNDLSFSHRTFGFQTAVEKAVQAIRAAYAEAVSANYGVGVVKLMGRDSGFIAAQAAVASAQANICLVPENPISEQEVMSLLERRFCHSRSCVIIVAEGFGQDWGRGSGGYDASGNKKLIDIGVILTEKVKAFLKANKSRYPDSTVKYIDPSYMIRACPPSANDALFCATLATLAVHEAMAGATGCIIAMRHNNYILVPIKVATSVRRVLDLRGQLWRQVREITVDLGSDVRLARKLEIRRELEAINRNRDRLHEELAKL
The test can be described thus: ADP-Glo assay for measuring PFK inhibition. It is filed as biochemical. As to the method: Parasite enzyme kinetic data were measured using N-terminally His6-tagged TbPFK expressed in Escherichia coli C41 cells, using a codon optimised gene inserted in a pET28a vector (Supplementary Methods 1). Recombinant human PFKs were expressed in PFK-deficient Saccharomyces cerevisiae. PFK enzyme inhibition was measured using an ADP-Glo^TM assay (Promega) in a 96-well plate format (Supplementary Methods 2.1), using a Spectramax© M5 Multimode Plate Reader to measure luminescence values which were converted to ADP concentrations. IC50 values were determined using a sigmoidal curve fitting algorithm in Kaleidagraph 4 (Supplementary Fig. 1). Mode of action studies were carried out using a linked enzyme assay coupling the forward reaction of TbPFK to the M1 isoform of human pyruvate kinase followed by lactate dehydrogenase. The change in UV absorbance at 340 nm resulting from the conversion of NADH to NAD^+ was measured at 25 °C in ‘kinetic mode’ on a Spectramax© M5 Multimode plate reader. Initial velocities were plotted against substrate concentration to give curves showing non-competitive inhibition (Supplementary Fig. 2). An alternative linked enzyme assay was developed to control for the potential inhibitory activity of ATP on human PFK (Supplementary Methods 2.3).
The ADP-Glo™ end-point assay kit manufactured by Promega (cat. No. V9102) was used to measure ADP produced in the phosphofructokinase reaction:
Following this kinase reaction, the addition of a reagent results in any unused background ATP being removed and the reaction is sequestered. A second reagent is then added to convert the remaining ADP to ATP which is coupled to the luciferase/luciferin reaction to produce light. ‘Ultrapure’ ATP and ADP from Promega were used to reduce background noise. All reagents additional to those provided in the Promega ADP-Glo™ kit were purchased from Sigma-Aldrich.
The assay buffer comprised 50 mM triethanolamine (TEA), 10 mM MgCl2, 5 mM KCl, 0.1% w/v bovine serum albumin (BSA), 0.005% Tween-20, 1% DMSO, pH 7.4. A 3-fold serial dilution of 250x inhibitor stocks was carried out in 100% DMSO. 2 µl of these dilutions was added to 198 µl assay buffer and mixed well using a multichannel pipette. […] Concentration ranges of inhibitor compounds were 40 - 0.006 µM (final concentration, 1% DMSO). The PFK reaction in the presence of inhibitor was carried out using 10 µl of 1 µg/ml PFK (final concentration 0.4 µg/ml) which was added to 10 µl of the 1% DMSO inhibitor compound serial dilutions in a white, non-binding 96-well plate (Greiner BioOne 655904). CTCB-001 was used as a positive control at a final concentration of 5 µM. Assay buffer containing 1% DMSO was added instead of inhibitor compound for the negative control. The protein/inhibitor mixture was incubated for 10 minutes at room temperature (RT). The kinase reaction was started by adding a 5x ATP/F6P stock in assay buffer (final concentrations 0.5 mM F6P and 0.1 mM ATP). Plates were then sealed, centrifuged at 560 x g for 30 seconds and incubated at RT for 30 minutes. 25 µl of ‘ADP-Glo™ Reagent’ was then added to each well, mixed using a multichannel pipette and incubated at room temperature for 40 minutes. 50 µl of ‘Kinase Detection Reagent’ was added and incubated for 50 minutes at RT. The luminescence was recorded using a Spectramax© M5 Multi-mode Plate Reader (Molecular Devices) in single-point mode, with an integration time of 750 milliseconds. The luminescence values were converted to ADP concentration using a standard calibration curve for ADP. The resulting ADP concentrations were plotted as a function of inhibitor compound concentration using Kaleidagraph 4.0 software. The data were analysed using non-linear regression and a sigmoidal curve was fitted (Supplementary Figure 1) to determine the IC50. Kaleidagraph 4.0 uses the Levenberg-Marquardt algorithm in an iterative procedure to fit non-linear curves. […] The slope of the curve at the midpoint (m4) was set to 1.

The test system of test [3] is T. b. brucei GVR35-VSL2. The experiment in a line: Mouse model of stage 1 and stage 2 HAT, bioluminescence imaging. It is filed as in vivo, T. b. brucei in female CD-1 mice. The source says: An alternative mouse model for stage 1 (acute) and stage 2 (CNS-involved) HAT has been developed using a transgenic cell line derived from the pleiomorphic T. b. brucei GVR35 that expresses red-shifted firefly luciferase[17],[18]. […] T. b. brucei GVR35-infected mice present stage 1 disease by day 7 post infection with progression to stage 2 by day 21. By injecting the mouse with luciferin, the level of parasitaemia can be estimated in real time by monitoring the luminescence. Unlike monomorphic Lister 427 T. b. brucei, the pleiomorphic GVR35 T. b. brucei is controlled by a quorum-sensing mechanism resulting in the significant increase in survival time in mice and lower blood parasitaemia that occurs in waves. This extended survival time is also accompanied by parasite dissemination to multiple tissues and organs, including the skin, adipose tissue, lung and brain, with parasite loads increasing over time[17],[19].
For the mouse model of stage 1 and stage 2 HAT T. b. brucei GVR35-VSL2 parasites (3 × 10^4) were injected into a single donor female CD-1 mouse intraperitoneally. Once infection was established, starting on day 7 for stage 1 studies and day 21 for stage 2 studies, mice were either left untreated (n = 3) or dosed by oral gavage with CTCB compound in Cremophor EL: EtOH: D-PBS (30:10:60 v/v; n = 6). Progression of T. b. brucei GVR35-VSL2 infection was monitored primarily by in vivo bioluminescence imaging of infected mice using an IVIS Spectrum (PerkinElmer). For stage 1 studies, imaging of infected mice was performed before treatment on day 7 post infection and on days following the treatment (days 8, 9 and 14). Imaging on groups of three mice was performed 12 min after intraperitoneal injection of 150 mg kg^−1 D-luciferin (Promega) in PBS. For stage 2 studies, mice were imaged prior to treatment on day 21, and subsequently on days 22 and 23. On day 23, 24 h after the final dose, mice were sacrificed by cervical dislocation and perfused with PBS containing 15 g L^−1 glucose to allow ex vivo imaging of whole brains (Supplementary Figs. 12 and 13).
Female CD-1 (Charles River UK; 6-8 weeks old) mice were infected with 3 × 10^4 T. b. brucei GVR35-VSL2 bloodstream form parasites intraperitoneally. T. b. brucei GVR35-VSL2 expresses red-shifted luciferase and provides a better signal for imaging (13). Once infection was established, starting on day 7 for Stage 1 studies and day 21 for Stage 2 studies, mice were either left untreated (n=3) or dosed by oral gavage with CTCB compound in Cremophor EL: EtOH : D-PBS (30:10:60 v/v) (n = 6). Additional groups of mice (n=3) that received either a single intraperitoneal dose of diminazene aceturate (Sigma-Aldrich) at 40 mg/kg in sterile water or 0.1 ml melarsoprol gel (14) containing 3.6 mg melarsoprol, applied topically for 3 consecutive days, served as controls for Stage 1 and Stage 2 treatment studies, respectively.
Progression of T. b. brucei GVR35-VSL2 infection was monitored primarily by in vivo bioluminescence imaging of infected mice using an IVIS Spectrum (PerkinElmer) as described previously (5). For stage 1 studies, imaging of infected mice was performed before treatment on day 7 post-infection and in days following the treatment (days 8, 9 and 14). Imaging on groups of three mice was performed 12 minutes after intraperitoneal injection of 150 mg/kg D-luciferin (Promega) in PBS. For stage 2 studies, mice were imaged prior to treatment on day 21 and subsequently on days 22 and 23. On day 23, 24 hours after the final dose, mice were sacrificed by cervical dislocation and perfused with phosphate-buffered saline containing 15 g.L^−1 glucose to allow ex vivo imaging of whole brains. To this end, 100 μl D-luciferin was administered onto the brain surface and imaging performed immediately thereafter.

The mark [4] stands for this setting: 72 h, read-out: EC50 (µM) in vitro parasite killing of bloodstream form T. brucei Lister 427 (Tbb EC50), 72 h, Alamar Blue.
Where [5] appears, read: source data for Fig. 2 and Table 1, read-out: Average IC50.
[6] abbreviates: source data, read-out: IC50 (µM), single dated measurement.
Where [7] appears, read: ADP-Glo, mean ± SD, read-out: IC50 (µM) for inhibition of T. brucei phosphofructokinase (PFK IC50).

As to `O=c1c2ccn(Cc3ccc(Cl)c(Cl)c3)c2ccn1CCO` [CTCB-401], the concentration for a half-maximal effect (EC50) was determined as 0.91 ± 0.04 µM in test [1] (setting [4]) and 0.9 µM in test [1] (read-out: EC50 against the parasite). Further, the IC50 in test [2] (read-out: IC50 TbPFK) was 0.073 µM.
`CC(CN)n1ccc2c(ccn2Cc2ccc(Cl)c(Cl)c2)c1=O` (stereo not drawn) [CTCB-457]: the EC50 in test [1] (setting [4]) is 0.27 ± 0.01 µM. For the same compound, the IC50 was 0.11 µM in test [2] (setting [5]); 0.092 µM and 0.122 µM in test [2] (setting [6]).
On to `Clc1ccc(Cn2ccc3cnccc32)cc1Cl` [CTCB103], for which the EC50 in test [1] (setting [4]) was found to be 7.8 ± 0.1 µM. The IC50 in test [2] (setting [7]) amounted to 0.46 ± 0.03 µM.
For `NCCn1ccc2c(ccn2Cc2ccc(Cl)c(Cl)c2)c1=O` [CTCB-421], in test [1] (setting [4]), the EC50 was found to be 0.54 ± 0.09 µM. Moreover, the IC50 in test [2] (read-out: IC50 TbPFK) is 0.03 µM; in test [2] (setting [5]) it was 0.0335 µM.
Turning to `Clc1ccc(Cn2cnc3cnccc32)cc1Cl` [CTCB107], in test [1] (setting [4]), the EC50 came out at 8.5 ± 0.6 µM. Further, the IC50 in test [2] (setting [7]) was found to be 1.14 ± 0.76 µM; in test [2] (setting [5]), 0.6 µM; in test [2] (setting [6]), 0.6 µM.
Consider `CNC[C@@H](C)n1ccc2c(ccn2Cc2ccc(Cl)c(Cl)c2)c1=O` [CTCB-481], for which, in test [1] (setting [4]), the EC50 came to 0.15 ± 0.05 µM. Moreover, the IC50 in test [2] (setting [5]) is 0.12 µM; in test [2] (setting [6]), 0.122 µM.
Consider `Nc1nc(N)nc(Nc2ccc([As]3SCC(CO)S3)cc2)n1` (stereo not drawn) [Melarsoprol, melarsoprol, reference compound], for which the “Whole body bioluminescence - Total Flux” value was 9.807E+10 p/s and 6.826E+10 p/s and 5.548E+10 p/s in test [3] (D21 pre-treatment, single mice); 1.530E+07 p/s and 2.111E+07 p/s and 2.252E+07 p/s in test [3] (D23 post-treatment, single mice). Besides, the “Side head bioluminescence - Total Flux” value in test [3] (D23, individual mice, Supp_Fig13) was 2.996E+07 p/s and 8.365E+06 p/s and 9.321E+06 p/s. Besides, in test [3] (D23, single mice), the “Ex vivo brain bioluminescence - Total Flux” value is 2.000E+06 p/s and 2.248E+06 p/s and 1.646E+06 p/s.
`Clc1ccc(Cn2ccnc2)cc1Cl` [CTCB-12]: the EC50 in test [1] (setting [4]) was found to be 8.9 ± 0.2 µM. Further, in test [2], the L.E. ligand efficiency worked out at 0.51. Also, the IC50 was determined as 0.83 µM in test [2] (Average IC50 (µM), source data for Fig. 2 and Table 1); 0.83 µM in test [2] (IC50 (µM) for inhibition of T. brucei phosphofructokinase (PFK IC50), ADP-Glo, mean ± SD); 0.83 µM in test [2] (IC50 (µM), single dated measurement, source data).
As for `O=c1[nH]ccc2c1ccn2Cc1ccc(Cl)c(Cl)c1` [CTCB-360], the EC50 in test [1] (setting [4]) is 1.1 ± 0.1 µM. Further, the concentration for half-maximal inhibition (IC50) in test [2] (setting [5]) was 0.07 µM; in test [2] (setting [6]) it was 0.041 µM and 0.049 µM and 0.091 µM and 0.059 µM and 0.112 µM.
